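The compound was tested at five concentrations on cells cultured in 96-well plates, with a 48-hour exposure period. GI50 marks 50% less growth. The concentration for full growth arrest is given as TGI.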
How the values were obtained:
Experiment in all cases: NCI-60 cell line screen, 48 h
NCI-H522 lung = tested on: NCI-H522 lung
SF-268 CNS = tested on: SF-268 CNS
MCF7 breast = tested on: MCF7 breast
CCRF-CEM leukemia = tested on: CCRF-CEM leukemia
SF-295 CNS = tested on: SF-295 CNS
HCT-116 colon = tested on: HCT-116 colon
NCI-H460 lung = tested on: NCI-H460 lung
LOX IMVI melanoma = tested on: LOX IMVI melanoma
OVCAR-3 ovarian = tested on: OVCAR-3 ovarian
HOP-92 NSCLC = tested on: HOP-92 NSCLC

Structure (SMILES)	GI50 (NCI-H522 lung)	TGI (NCI-H522 lung)	GI50 (SF-268 CNS)	TGI (SF-268 CNS)	GI50 (MCF7 breast)	TGI (MCF7 breast)	GI50 (CCRF-CEM leukemia)	TGI (CCRF-CEM leukemia)	GI50 (SF-295 CNS)	TGI (SF-295 CNS)	GI50 (HCT-116 colon)	TGI (HCT-116 colon)	GI50 (NCI-H460 lung)	TGI (NCI-H460 lung)	GI50 (LOX IMVI melanoma)	TGI (LOX IMVI melanoma)	GI50 (OVCAR-3 ovarian)	TGI (OVCAR-3 ovarian)	GI50 (HOP-92 NSCLC)	TGI (HOP-92 NSCLC)
O=C(/C=C/C=C/c1ccccc1)c1ccc(Nc2nc(Nc3ccccc3)nc(Nc3ccccc3)n2)cc1	> 100 µM	> 100 µM	97 µM	> 100 µM	17.7 µM	> 100 µM	19.4 µM	> 100 µM	32.5 µM	> 100 µM	12.2 µM	> 100 µM	42.8 µM	> 100 µM	> 100 µM	> 100 µM	47.8 µM	> 100 µM	0.241 µM	17.7 µM
COc1ccccc1CNCCCN1C(=O)c2ccc3c4c(ccc(c24)C1=O)C(=O)N(CCCNCCCCNCCCCN)C3=O	1.62 µM	6.07 µM	0.903 µM	6.99 µM	0.498 µM	2.24 µM	0.756 µM	> 33.4 µM	2.63 µM	11 µM	0.407 µM		2.27 µM	5.8 µM	0.941 µM	4.76 µM	0.475 µM	5.93 µM	1.87 µM	8.66 µM
Cn1cc(C2=C(c3c4n(c5ccccc35)CC(CN)C4)C(=O)NC2=O)c2ccccc21 (stereo not drawn)	3 µM	6.63 µM	3.94 µM	9.57 µM	1.4 µM	4.85 µM	4.82 µM	25 µM	3.54 µM	8.56 µM	2.32 µM	6.22 µM	3.79 µM	7.8 µM	2.98 µM	6.92 µM	2.82 µM	9.35 µM	4.32 µM	11.6 µM
C(=N/Nc1ncnc2nc[nH]c12)/c1ccccn1	0.551 µM	> 100 µM	0.342 µM	> 23.7 µM	0.444 µM	> 100 µM	0.227 µM	> 100 µM	0.774 µM	16 µM	0.46 µM	> 100 µM	3.29 µM	> 50.8 µM	0.525 µM	> 100 µM	0.421 µM	> 47 µM	3.14 µM	8.72 µM
O=C(c1ccccn1)c1nnn2ccccc12		> 100 µM		> 100 µM		> 100 µM		> 100 µM		> 100 µM		> 100 µM		> 100 µM		> 100 µM		> 100 µM		> 100 µM
C[As](C)Sc1ccnc(S[As](C)C)n1	0.918 µM	27.8 µM	7.44 µM	> 39.7 µM	3.23 µM	> 35.1 µM	1.34 µM		27.2 µM	> 59.2 µM	2.13 µM	> 34.8 µM	19.1 µM	> 58.6 µM	2.76 µM	96.2 µM	3.91 µM	22 µM	0.774 µM	5 µM
O=S(=O)(O)c1ccc(Cl)cc1.[Cd]	1.99 µM	6.79 µM	24.7 µM	72 µM	34.6 µM	> 100 µM	24.9 µM	85.4 µM	> 100 µM	> 100 µM	> 100 µM	> 100 µM	4.61 µM	25.3 µM	> 100 µM	> 100 µM	18.5 µM	44.4 µM	> 100 µM	> 100 µM
Cc1cc(Cl)ccc1NC(=O)/C(Cl)=C(/Cl)C(=O)O		32.7 µM		> 100 µM		50.5 µM		> 100 µM		> 100 µM		37.9 µM		> 100 µM		43 µM		36.8 µM		54.5 µM
COC(=O)NNc1c([N+](=O)[O-])cnn(-c2ccccc2)c1=O		2.6 µM		7.71 µM		18 µM		1.55 µM		8.37 µM		3.9 µM		15.9 µM		3.2 µM		3.56 µM		3.9 µM
C/C(=N\Nc1ccc2ccccc2n1)c1ccccc1O		> 100 µM		> 100 µM		> 100 µM		> 29.4 µM		37.2 µM		> 100 µM		> 100 µM		> 100 µM		> 20 µM		> 100 µM
CCOCCc1c(O)nc(SC)[nH]c1=O	> 100 µM	> 100 µM	> 100 µM	> 100 µM	> 100 µM	> 100 µM	> 100 µM	> 100 µM	> 100 µM	> 100 µM	> 100 µM	> 100 µM	> 100 µM	> 100 µM	> 100 µM	> 100 µM	> 100 µM	> 100 µM	> 100 µM	> 100 µM
O=C1Nc2ccccc2C1(c1ccc(O)c(F)c1)c1ccc(O)c(F)c1	11.5 µM	31.3 µM	16.1 µM	62.1 µM	0.27 µM	2.81 µM	17.8 µM	73.3 µM	12.5 µM	28.5 µM	11.6 µM	52.7 µM	19 µM	47.8 µM	0.53 µM	15.8 µM	0.295 µM	0.918 µM	2.36 µM	16.6 µM
CC(C)c1ccc2c(N=Nc3ccc(S(N)(=O)=O)cc3)c(O)[nH]c2c1	7.08 µM	> 17.8 µM	7.52 µM	> 20.2 µM	> 14.7 µM	> 25 µM	> 25 µM	> 25 µM	11.2 µM	> 25 µM	11 µM	> 25 µM	5.72 µM	> 16.4 µM	9.01 µM	> 25 µM	6.21 µM	18.6 µM	> 15.9 µM	> 25 µM
Fc1ccc(CNc2c3ccccc3nc3ccccc23)cc1	1.66 µM	4.24 µM	2.74 µM	9.49 µM	1.79 µM	4.97 µM	3.12 µM	> 100 µM	2.9 µM	11.1 µM	2.12 µM	11.8 µM	2.3 µM	6.69 µM	1.55 µM	3.07 µM	2.37 µM	5.43 µM	2.25 µM	11.5 µM
CCOC(=O)C1=C(N)Oc2c(sc3c(C)cccc23)C1c1ccc(Cl)cc1 (stereo not drawn)	1.22 µM	6.28 µM	6.13 µM	22.4 µM	0.655 µM	10.9 µM	3.65 µM	24.1 µM	1.89 µM	4.26 µM	2.83 µM	12.1 µM	3.29 µM	11.6 µM	3.03 µM	13.7 µM	2.69 µM	9.61 µM	3.83 µM	20.7 µM
C=C1C(=O)O[C@H]2[C@H]1CC/C(C=Nc1ccc(C(F)(F)F)cc1N)=C\CC[C@@]1(C)O[C@@H]21	2.43 µM	7.8 µM	7.6 µM	21.1 µM	3.06 µM	16 µM	3.16 µM	11.2 µM	13.1 µM	26.3 µM	2.38 µM	11 µM	7.07 µM	22.7 µM	4.12 µM	17.4 µM	2.75 µM	11.3 µM	15.4 µM	29.7 µM
C=C1C(=O)O[C@H]2[C@H]1CC/C(COC(=O)/C=C\C(=O)NCc1ccc(Cn3c(=O)sn(-c4ccc(OC)cc4)c3=O)cc1)=C\CC[C@@]1(C)O[C@@H]21	0.648 µM	1.56 µM	0.693 µM	1.37 µM	0.292 µM	1.17 µM	0.174 µM	4.27 µM	3.84 µM	10.1 µM	0.171 µM	0.755 µM	0.804 µM	1.81 µM	0.36 µM	1.09 µM	0.245 µM	0.898 µM	0.587 µM	1.36 µM
CSC(=S)N/N=C/c1ccccc1		> 100 µM		> 100 µM		> 100 µM		> 100 µM		> 100 µM		> 100 µM		> 100 µM		> 100 µM		> 100 µM		> 100 µM
CCCN(CCC)c1ccc(C=O)cc1	28 µM	> 100 µM	53.2 µM	> 100 µM	36 µM	> 100 µM	30.2 µM	> 100 µM	34.2 µM	> 100 µM	39.7 µM	> 100 µM	> 100 µM	> 100 µM	59.6 µM	> 100 µM	24.9 µM	> 87.4 µM	13 µM	66.2 µM
Cc1ccc(Cl)cc1Nc1nc(C(F)(F)F)ccc1C(=O)N/N=C/c1c(Cl)cccc1Cl	1.77 µM	5.98 µM	0.623 µM	13.4 µM	1.74 µM	> 38.1 µM	0.289 µM	1.56 µM	0.556 µM	3.61 µM	0.355 µM	1.58 µM	0.578 µM	4.81 µM	0.648 µM	5.15 µM	0.285 µM	2.7 µM	1.14 µM	6.92 µM
CC(=O)Oc1ccc2ccc(=O)oc2c1OC(C)=O		> 100 µM		> 100 µM		> 100 µM		46.1 µM		> 100 µM		> 100 µM		> 100 µM		> 100 µM		> 100 µM		> 100 µM
C[N+](C)(C)CCC(=O)N1C/C(=C\c2ccccc2)C(=O)/C(=C/c2ccccc2)C1		5.42 µM		13 µM		3.31 µM		7.05 µM		11.9 µM		2.98 µM		22.4 µM		3.46 µM		9.31 µM		38.7 µM
COc1cc(C(=O)NC2CCN(C)CC2)ccc1Nc1ncc2c(n1)N(C1CCCC1)CC(F)(F)C(=O)N2C	0.0129 µM	2.92 µM	0.0487 µM	12.5 µM	< 0.01 µM	10.5 µM	< 0.01 µM	12.2 µM	0.0491 µM	3.51 µM	< 0.0118 µM	11.2 µM	< 0.0152 µM	11.6 µM	< 0.0167 µM	2.37 µM	< 0.01 µM	3.9 µM	0.1 µM	1.7 µM
O=C(CCCCC(=O)N/N=C\c1ccccc1Cl)N/N=C\c1ccccc1Cl	2.13 µM	41.1 µM	13.5 µM	56.7 µM	1.62 µM	> 100 µM	> 100 µM	> 100 µM	0.539 µM	44.4 µM	0.654 µM	> 100 µM	3.15 µM	> 100 µM	> 100 µM	> 100 µM	0.598 µM	28.8 µM	1.95 µM	19.2 µM
O=C(O)c1cc(N/C=C2\C(=O)c3ccccc3OC2O)ccc1O (stereo not drawn)	34.3 µg/mL	72.7 µg/mL	24 µg/mL	108 µg/mL	24.1 µg/mL	115 µg/mL	9.75 µg/mL	44.2 µg/mL	18.1 µg/mL	52.8 µg/mL	19.8 µg/mL	51 µg/mL	34 µg/mL	81.3 µg/mL	24.7 µg/mL	80.9 µg/mL	14.6 µg/mL	47.2 µg/mL	6.73 µg/mL	125 µg/mL
CCOC(=O)c1c[nH]c2c(OCc3ccccc3)c3ccccc3c(O)c2c1=O	13.3 µM	> 83.9 µM	12.9 µM	50.7 µM	9.55 µM	> 67.4 µM	5.73 µM	> 100 µM	2.09 µM	15.5 µM	3.74 µM	> 51.8 µM	4.29 µM	> 47.5 µM	6.83 µM	33 µM	11.1 µM	51 µM	27 µM	93.5 µM
O=C1Nc2cc(Cl)ccc2Oc2cc(Oc3ccccc3)ccc21	3.51 µM	> 100 µM	6.33 µM	31.6 µM	3.39 µM	18.3 µM	3.24 µM	> 100 µM	3.64 µM	18.5 µM	4.23 µM	32 µM	2.91 µM	11.7 µM	5.51 µM	> 100 µM	2.53 µM	7.32 µM	1.32 µM	9.41 µM
COc1ccc2c(CC(=O)O)cc(=O)oc2c1		> 100 µM		> 100 µM		> 100 µM		> 100 µM		> 100 µM		> 100 µM		> 100 µM		> 100 µM		> 100 µM		> 100 µM
